Data on three compounds can be found in publication PMC4535455 (International journal of pharmaceutics, 2015).

One may read the solubility as how much of the substance goes into solution per volume. Lower therefore signals a poorly soluble substance.

The subject of one series is peptide transporters. In words: [3H]-GlySar cellular uptake in MDCK-MDR1 cells. In kind it is cell-based. The following applies: DPBS pH 7.4, 37 °C.
A further series deals with MDCK-WT cells. In words: Cytotoxicity by LDH assay. In kind it is cell-based.
The nature of series [1]: Aqueous solubility studies.

In brackets after ≈: the same amount, converted by molar mass. Where a SMILES comes first, the peptide text is derived from it. [ ]: non-standard residue; d: D form. Sar = CNCC(=O)O

For `CN(CC(=O)O)C(=O)CN` [Gly-Sar] (H-Gly-[Sar]-OH), the entries for the “[3H]-GlySar uptake in the presence of compound (percentage of control)” value with peptide transporters (1 mM) and with peptide transporters (2 mM) were 40% and 30%, respectively.

Regarding `C[C@]12C=CC(=O)C=C1CC[C@@H]1[C@@H]2[C@@H](O)C[C@@]2(C)[C@H]1CC[C@]2(O)C(=O)CO` [prednisolone, Prednisolone], in the series with MDCK-WT cells (5–250 µM, 4 h), the “Cytotoxic effects (LDH release)” value was “did not generate any cytotoxic effects”. Further, the “[3H]-GlySar uptake in the presence of compound (percentage of control)” value with peptide transporters (100 µM) was “No significant inhibition”. For the same compound, the solubility at 4 h in series [1] is 0.31 ± 0.03 mg/mL (≈ 860 µM).

As for Triton x-100, in the series with MDCK-WT cells (1%, positive control), the “Cytotoxicity (LDH release)” value is “displayed significant cytotoxicity” and the “Increase in absorbance (LDH) versus negative control” value is “About 5 fold”.
